From patent US8697739B2, “Bicyclic acetyl-CoA carboxylase inhibitors and uses thereof” (Novartis AG, priority 2010, dated 2014)

Target: T1, human acetyl-CoA carboxylase 2 (ACC2) (Homo sapiens, UniProt O00763)
T1 construct: The cDNA encoding amino acids 144 to 2458 of human acetyl-CoA carboxylase 2; made in house; host or cells: Sf9 insect cells (baculovirus, pFastBac1)
Experiment: Acetyl-CoA carboxylase enzyme assay (malonyl-CoA formation by LC/MS/MS)
Assay type: biochemical
Details: recombinant human ACC2 (aa 144-2458); read-out: IC50 ACC2
How it was run: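 Malonyl-CoA formation was read by LC/MS/MS MRM against a [13C3]-malonyl-CoA internal standard, after acetic acid quench. The enzyme was baculovirus/Sf9-expressed human ACC2 residues 144–2458, given 15 minutes room-temperature compound preincubation in HEPES pH 7.5 buffer with MgCl2, citrate and DTT. Substrate solution held 50 μM acetyl-CoA, 120 μM ATP and 2 mM KHCO3.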

T1 sequence (O00763 144-2458): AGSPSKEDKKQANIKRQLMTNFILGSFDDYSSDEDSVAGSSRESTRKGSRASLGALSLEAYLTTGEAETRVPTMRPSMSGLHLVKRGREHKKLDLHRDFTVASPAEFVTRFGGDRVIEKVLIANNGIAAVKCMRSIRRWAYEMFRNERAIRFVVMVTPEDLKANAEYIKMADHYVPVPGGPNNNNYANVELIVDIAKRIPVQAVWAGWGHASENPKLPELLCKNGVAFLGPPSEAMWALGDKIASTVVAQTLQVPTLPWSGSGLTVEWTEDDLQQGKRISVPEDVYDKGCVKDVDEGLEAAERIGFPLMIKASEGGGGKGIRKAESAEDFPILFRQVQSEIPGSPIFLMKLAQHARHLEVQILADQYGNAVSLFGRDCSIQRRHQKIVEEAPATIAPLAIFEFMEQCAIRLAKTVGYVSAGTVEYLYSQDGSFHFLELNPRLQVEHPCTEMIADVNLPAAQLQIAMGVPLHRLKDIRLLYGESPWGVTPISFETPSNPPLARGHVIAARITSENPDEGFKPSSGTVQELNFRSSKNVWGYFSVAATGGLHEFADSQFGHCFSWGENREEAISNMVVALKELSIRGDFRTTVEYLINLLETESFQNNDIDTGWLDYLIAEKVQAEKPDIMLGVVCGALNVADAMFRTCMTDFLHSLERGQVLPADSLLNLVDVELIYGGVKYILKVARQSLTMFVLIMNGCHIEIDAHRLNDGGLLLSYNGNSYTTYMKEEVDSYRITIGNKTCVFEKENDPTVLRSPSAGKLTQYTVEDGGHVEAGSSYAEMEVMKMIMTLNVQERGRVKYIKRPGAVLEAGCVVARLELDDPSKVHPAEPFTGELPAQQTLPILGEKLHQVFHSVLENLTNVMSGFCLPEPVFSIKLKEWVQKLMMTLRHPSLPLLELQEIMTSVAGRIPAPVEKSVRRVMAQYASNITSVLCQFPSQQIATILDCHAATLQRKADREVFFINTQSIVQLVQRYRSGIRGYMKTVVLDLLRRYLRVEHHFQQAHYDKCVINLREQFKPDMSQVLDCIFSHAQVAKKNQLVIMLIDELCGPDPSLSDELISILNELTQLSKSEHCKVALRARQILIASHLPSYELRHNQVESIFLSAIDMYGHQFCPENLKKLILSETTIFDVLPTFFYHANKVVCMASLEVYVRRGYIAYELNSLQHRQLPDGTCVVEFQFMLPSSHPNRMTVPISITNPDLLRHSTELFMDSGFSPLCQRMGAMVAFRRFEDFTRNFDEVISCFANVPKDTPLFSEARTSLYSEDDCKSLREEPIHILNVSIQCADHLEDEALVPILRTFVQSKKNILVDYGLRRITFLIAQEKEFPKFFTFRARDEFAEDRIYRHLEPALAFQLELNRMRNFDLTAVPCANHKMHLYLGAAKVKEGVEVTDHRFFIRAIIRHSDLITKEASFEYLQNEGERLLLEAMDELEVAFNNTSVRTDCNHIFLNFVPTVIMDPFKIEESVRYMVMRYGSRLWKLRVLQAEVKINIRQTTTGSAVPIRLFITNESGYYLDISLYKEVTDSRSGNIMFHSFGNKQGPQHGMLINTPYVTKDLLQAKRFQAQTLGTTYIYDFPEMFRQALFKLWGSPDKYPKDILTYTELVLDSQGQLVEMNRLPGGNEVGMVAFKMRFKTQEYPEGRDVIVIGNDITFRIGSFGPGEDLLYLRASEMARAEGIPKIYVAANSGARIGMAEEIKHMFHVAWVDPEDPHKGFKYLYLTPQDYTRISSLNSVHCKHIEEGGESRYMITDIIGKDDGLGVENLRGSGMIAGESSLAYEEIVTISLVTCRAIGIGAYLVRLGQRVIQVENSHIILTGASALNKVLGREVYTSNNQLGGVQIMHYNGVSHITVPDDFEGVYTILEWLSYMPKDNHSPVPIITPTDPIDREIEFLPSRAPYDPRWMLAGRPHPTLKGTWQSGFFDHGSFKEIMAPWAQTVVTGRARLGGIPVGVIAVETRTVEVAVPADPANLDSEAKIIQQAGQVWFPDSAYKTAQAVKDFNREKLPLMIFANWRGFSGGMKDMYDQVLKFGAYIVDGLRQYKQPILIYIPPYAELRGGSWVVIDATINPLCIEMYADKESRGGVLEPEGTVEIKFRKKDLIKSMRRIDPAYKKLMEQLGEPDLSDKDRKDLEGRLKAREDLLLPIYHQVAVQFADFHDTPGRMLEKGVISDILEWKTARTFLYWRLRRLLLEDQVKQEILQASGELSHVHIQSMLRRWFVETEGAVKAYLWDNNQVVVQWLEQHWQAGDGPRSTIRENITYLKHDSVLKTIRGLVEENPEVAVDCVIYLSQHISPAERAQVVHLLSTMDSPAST

IC50 | Structure (SMILES)
93 nM | C[C@@H](NC(=O)[C@H]1CC[C@H](NS(=O)(=O)c2ccc3nc(N(C)C)ccc3c2)CC1)c1ccc(F)cc1 [Example 53, (1r,4R)-4-(2-(dimethylamino)quinoline-6-sulfonamido)-N-((R)-1-(4-fluorophenyl)ethyl)cyclohexanecarboxamide]
285 nM | C[C@H]1COCCN1C(=O)[C@H]1CC[C@H](NS(=O)(=O)c2ccc3cc(C4CC4)n(C)c3c2)CC1 [Example 422, 2-cyclopropyl-1-methyl-N-((1S,4r)-4-((S)-3-methylmorpholine-4-carbonyl)cyclohexyl)-1H-indole-6-sulfonamide]
< 10 nM | COCCc1ccc(-c2cc3ccc(S(=O)(=O)N[C@H]4CC[C@H](C(=O)N5CCOC[C@@H]5C(C)C)CC4)cc3[nH]2)cc1 [Example 460, N-((1S,4r)-4-((S)-3-isopropylmorpholine-4-carbonyl)cyclohexyl)-2-(4-(2-methoxyethyl)phenyl)-1H-indole-6-sulfonamide]
337 nM | CC(C)OC(=O)c1ccc(NS(=O)(=O)c2ccc3[nH]c(-c4ccc(CN(C)C)cc4)nc3c2)cc1 [Example 558, isopropyl 4-(2-(4-((dimethylamino)methyl)phenyl)-1H-benzo[d]imidazole-5-sulfonamido)benzoate]
193 nM | C[C@@H](NC(=O)[C@H]1CC[C@H](NS(=O)(=O)c2ccc3nc(O)ccc3c2)CC1)c1ccc(F)cc1 [Example 54, (1r,4R)-N-((R)-1-(4-fluorophenyl)ethyl)-4-(2-hydroxyquinoline-6-sulfonamido)cyclohexanecarboxamide]
676 nM | COc1ccc(Nc2nc3cc(S(=O)(=O)Nc4ccc(-c5nnc(C(C)(C)C)o5)cc4)ccc3[nH]2)cc1 [Example 604, N-(4-(5-tert-butyl-1,3,4-oxadiazol-2-yl)phenyl)-2-(4-methoxyphenylamino)-1H-benzo[d]imidazole-5-sulfonamide]
2110 nM | CC(C)OC(=O)c1ccc(NS(=O)(=O)c2ccc3nc(-c4ccc(F)cc4)[nH]c3c2)cc1 [Example 499, isopropyl 4-(2-(4-fluorophenyl)-1H-benzo[d]imidazole-6-sulfonamido)benzoate]
70 nM | CC(C)[C@H]1COCCN1C(=O)[C@H]1CC[C@H](NS(=O)(=O)c2ccc3cc(C4CC4)n(C)c3c2)CC1 [Example 22, 2-cyclopropyl-N-((1S,4r)-4-((S)-3-isopropylmorpholine-4-carbonyl)cyclohexyl)-1-methyl-1H-indole-6-sulfonamide]
440 nM | C[C@@H](NC(=O)[C@H]1CC[C@H](NS(=O)(=O)c2cnc3c(c2)NCC(C)(C)CN3)CC1)c1ccc(F)cc1 [Example 153, (1r,4R)-4-(3,3-dimethyl-2,3,4,5-tetrahydro-1H-pyrido[2,3-b][1,4]diazepine-8-sulfonamido)-N-((R)-1-(4-fluorophenyl)ethyl)cyclohexanecarboxamide]
< 10 nM | Cc1ccccc1-c1cc2ccc(S(=O)(=O)N[C@H]3CC[C@H](C(=O)N4CCN(C(=O)OC(C)(C)C)C[C@@H]4c4ccccc4)CC3)cc2[nH]1 [Example 322, (S)-tert-butyl 3-phenyl-4-((1r,4S)-4-(2-o-tolyl-1H-indole-6-sulfonamido)cyclohexanecarbonyl)piperazine-1-carboxylate]
< 10 nM | CC(C)[C@H]1COCCN1C(=O)[C@H]1CC[C@H](NS(=O)(=O)c2ccc3c(Cl)c(-c4ccccc4)[nH]c3c2)CC1 [Example 468, 3-chloro-N-((1S,4r)-4-((S)-3-isopropylmorpholine-4-carbonyl)cyclohexyl)-2-phenyl-1H-indole-6-sulfonamide]
10 nM | COC[C@@H](NC(=O)[C@H]1CC[C@H](NS(=O)(=O)c2ccc3cc(C4CC4)n(C)c3c2)CC1)c1ccccc1 [Example 377, (1r,4S)-4-(2-cyclopropyl-1-methyl-1H-indole-6-sulfonamido)-N-((S)-2-methoxy-1-phenylethyl)cyclohexanecarboxamide]
85 nM | C[C@@H](NC(=O)[C@H]1CC[C@H](NS(=O)(=O)c2ccc3c(c2)N(C)C(C(=O)O)CC3)CC1)c1ccc(F)cc1 (stereo partly drawn) [Example 225, 7-(N-((1R,4r)-4-((R)-1-(4-fluorophenyl)ethylcarbamoyl)cyclohexyl)sulfamoyl)-1-methyl-1,2,3,4-tetrahydroquinoline-2-carboxylic acid]
1660 nM | Cc1cccc(-c2nc3ccc(S(=O)(=O)Nc4ccc(C(=O)OC(C)C)cc4)cc3[nH]2)c1 [Example 501, isopropyl 4-(2-m-tolyl-1H-benzo[d]imidazole-6-sulfonamido)benzoate]
< 10 nM | CC(C)(C)OC(=O)N1CCN(C(=O)[C@H]2CC[C@H](NS(=O)(=O)c3ccc4c(c3)Cc3ccccc3-4)CC2)[C@@H](c2ccccc2)C1 [Example 240, (S)-tert-butyl 4-((1r,4S)-4-(9H-fluorene-2-sulfonamido)cyclohexanecarbonyl)-3-phenylpiperazine-1-carboxylate]
545 nM | Cn1c(-c2ccccc2)cc2cc(S(=O)(=O)N[C@H]3CC[C@H](C(=O)N4CC(C(=O)O)CCC4c4ccccc4)CC3)ccc21 (stereo partly shown) [Example 93, 1-((1r,4r)-4-(1-methyl-2-phenyl-1H-indole-5-sulfonamido)cyclohexanecarbonyl)-6-phenylpiperidine-3-carboxylic acid]

IC50 | Structure (SMILES)
30 nM | C[C@H]1COCCN1C(=O)[C@H]1CC[C@H](NS(=O)(=O)c2ccc3cc(-c4ccccc4)n(C)c3c2)CC1 [Example 425, 1-methyl-N-((1S,4r)-4-((S)-3-methylmorpholine-4-carbonyl)cyclohexyl)-2-phenyl-1H-indole-6-sulfonamide]
10 nM | O=C1NCCCCC1NC(=O)[C@H]1CC[C@H](NS(=O)(=O)c2ccc3cc(-c4ccccc4)[nH]c3c2)CC1 (stereo partly shown) [Example 466, (1r,4r)-N-(2-oxoazepan-3-yl)-4-(2-phenyl-1H-indole-6-sulfonamido)cyclohexanecarboxamide]
40 nM | COC[C@@H](NC(=O)[C@H]1CC[C@H](NS(=O)(=O)c2ccc3cc(-c4ccccc4)n(C)c3c2)CC1)c1ccccc1 [Example 423, (1r,4S)-N-((S)-2-methoxy-1-phenylethyl)-4-(1-methyl-2-phenyl-1H-indole-6-sulfonamido)cyclohexanecarboxamide]
25 nM | Cn1c(-c2ccccc2)cc2ccc(S(=O)(=O)N[C@H]3CC[C@H](C(=O)N4CCN[C@@H](C(F)(F)F)C4)CC3)cc21 [Example 332, 1-methyl-2-phenyl-N-((1R,4r)-4-((R)-3-(trifluoromethyl)piperazine-1-carbonyl)cyclohexyl)-1H-indole-6-sulfonamide]
952 nM | C[C@H]1CCCN1C(=O)[C@H]1CC[C@H](NS(=O)(=O)c2ccc3ccccc3c2)CC1 [Example 146, N-((1S,4r)-4-((S)-2-methylpyrrolidine-1-carbonyl)cyclohexyl)naphthalene-2-sulfonamide]
110 nM | CC(O)Cc1cc2ccc(S(=O)(=O)N[C@H]3CC[C@H](C(=O)N[C@H](C)c4ccc(F)cc4)CC3)cc2[nH]1 (stereo partly drawn) [Example 316, (1r,4R)-N-((R)-1-(4-fluorophenyl)ethyl)-4-(2-(2-hydroxypropyl)-1H-indole-6-sulfonamido)cyclohexanecarboxamide]
267 nM | CC(C)(C)c1nnc([C@H]2CC[C@H](NS(=O)(=O)c3ccc4[nH]c(-c5ccc(N6CCOCC6)cc5)nc4c3)CC2)o1 [Example 588, N-((1r,4r)-4-(5-tert-butyl-1,3,4-oxadiazol-2-yl)cyclohexyl)-2-(4-morpholinophenyl)-1H-benzo[d]imidazole-5-sulfonamide]
35 nM | CC(C)OC(=O)c1ccc(NS(=O)(=O)c2ccc3[nH]c(Nc4ccc(Cl)c(S(N)(=O)=O)c4)nc3c2)cc1 [Example 544, isopropyl 4-(2-(4-chloro-3-sulfamoylphenylamino)-1H-benzo[d]imidazole-5-sulfonamido)benzoate]
50 nM | Cc1cc(-c2ccc3cc(S(=O)(=O)N[C@H]4CC[C@H](C(=O)N5CCNC[C@H]5c5ccccc5)CC4)ccc3n2)cc(C)n1 [Example 257, 2-(2,6-dimethylpyridin-4-yl)-N-((1R,4r)-4-((R)-2-phenylpiperazine-1-carbonyl)cyclohexyl)quinoline-6-sulfonamide]
118 nM | CCCN(C)C(=O)[C@H]1CC[C@H](NS(=O)(=O)c2ccc3[nH]c(Nc4ccccc4)nc3c2)CC1 [Example 566, (1r,4r)-N-methyl-4-(2-(phenylamino)-1H-benzo[d]imidazole-5-sulfonamido)-N-propylcyclohexanecarboxamide]
20 nM | COC[C@H]1CCCN1C(=O)[C@H]1CC[C@H](NS(=O)(=O)c2ccc3cc(-c4ccccc4)n(C)c3c2)CC1 [Example 408, N-((1R,4r)-4-((R)-2-(methoxymethyl)pyrrolidine-1-carbonyl)cyclohexyl)-1-methyl-2-phenyl-1H-indole-6-sulfonamide]
145 nM | O=C(NC1CCCCC1)[C@H]1CC[C@H](NS(=O)(=O)c2ccc3[nH]c(-c4ccccc4)nc3c2)CC1 [Example 632, (1r,4r)-N-cyclohexyl-4-(2-phenyl-1H-benzo[d]imidazole-5-sulfonamido)cyclohexanecarboxamide]
580 nM | COc1ccc(COC(=O)C2(C)CCC(NS(=O)(=O)c3ccc4c(ccn4C)c3)CC2)cc1 (stereo not shown) [Example 379, 4-methoxybenzyl 1-methyl-4-(1-methyl-1H-indole-5-sulfonamido)cyclohexanecarboxylate]
75 nM | CCn1c(-c2ccccc2)cc2ccc(S(=O)(=O)N[C@H]3CC[C@H](C(=O)N4CCOC[C@@H]4C)CC3)cc21 [Example 486, 1-ethyl-N-((1S,4r)-4-((S)-3-methylmorpholine-4-carbonyl)cyclohexyl)-2-phenyl-1H-indole-6-sulfonamide]
9350 nM | COCc1nnc(-c2ccc(NS(=O)(=O)c3ccc4nc(-c5ccccc5)[nH]c4c3)cc2)o1 [Example 520, N-(4-(5-(methoxymethyl)-1,3,4-oxadiazol-2-yl)phenyl)-2-phenyl-1H-benzo[d]imidazole-6-sulfonamide]
